Source: patent US20040121316A1 (priority 2002, published 2004)
Read-outs that look alike come from different tables or passages of the source.

Tests used:
HIV-1 48V54V82S = assay: microbe, parasite or virus in culture; format: cell-based
HIV-1 48V82A90M = assay: microbe, parasite or virus in culture; format: cell-based
84V90M HIV protease = 84V90M HIV protease (Human immunodeficiency virus type 1 group M subtype B, UniProt P04585, I572V/L578M); assay: biochemical; parameters: species or system HIV-1
HIV-1 84V90M = assay: microbe, parasite or virus in culture; format: cell-based; conditions: Human immunodeficiency virus 1, read-out: Cell-based assay (MT-4) EC50/nM 84V90M
HIV-1 48V54V82A = assay: microbe, parasite or virus in culture; format: cell-based
HIV-1 46I50V = assay: microbe, parasite or virus in culture; format: cell-based
HIV-1 30N82I88D = assay: microbe, parasite or virus in culture; format: cell-based
WT HIV-1 [1] = assay: microbe, parasite or virus in culture; format: cell-based
[2] = tested on: recombinant HIV-1 48V 54V 71V 82S; assay: microbe, parasite or virus in culture; format: cell-based
[3] = tested on: recombinant HIV-1 10I 84V 71V 73S 90M; assay: microbe, parasite or virus in culture; format: cell-based
[4] = tested on: recombinant HIV-1 10I 48V 71V 82A 90M; assay: microbe, parasite or virus in culture; format: cell-based
[5] = tested on: recombinant HIV-1 30N 50S 82I 88D; assay: microbe, parasite or virus in culture; format: cell-based
[6] = tested on: recombinant HIV-1 10I 48V 54V 82A; assay: microbe, parasite or virus in culture; format: cell-based
[7] = tested on: recombinant HIV-1 46I 47V 50V; assay: microbe, parasite or virus in culture; format: cell-based
WT HIV-1 [8] = assay: microbe, parasite or virus in culture; format: cell-based; conditions: Human immunodeficiency virus 1, MT4, read-out: Cell-based assay (MT-4) EC50/nM WT
[9] = tested on: recombinant HIV-1 strains with resistance mutations in the protease gene; assay: Cross-Resistance Profile Assay, whole panel; format: cell-based; conditions: {}
[10] = tested on: wild-type HIV-1 strain IIIB; assay: microbe, parasite or virus in culture; format: cell-based; conditions: Human immunodeficiency virus 1, IIIB
in vitro = conditions: human
mutant HIV-1 I84V/L90M = assay: Resistance Evaluation, I84V/L90M fold change; format: cell-based; conditions: EC50 of mutant I84V/L90M relative to wild type; class symbols
[11] = Human immunodeficiency virus 1, read-out: Cell-based assay (MT-4) EC50/nM 48V54V82A
[12] = Human immunodeficiency virus 1, read-out: Cell-based assay (MT-4) EC50/nM 46I50V
[13] = Human immunodeficiency virus 1, read-out: Cell-based assay (MT-4) EC50/nM 30N82I88D
[14] = MT-4, 48V54V82S, read-out: Cell-based assay (MT-4) EC50/nM 48V54V82S
[15] = MT-4, 48V82A90M, read-out: Cell-based assay (MT-4) EC50/nM 48V82A90M
[16] = MT-4, 48V54V82A, read-out: Cell-based assay (MT-4) EC50/nM 48V54V82A
[17] = MT-4, 46I50V, read-out: Cell-based assay (MT-4) EC50/nM 46I50V
[18] = MT-4, 30N82I88D, read-out: Cell-based assay (MT-4) EC50/nM 30N82I88D
[19] = Human immunodeficiency virus 1, read-out: Cell-based assay (MT-4) EC50/nM WT

CCOP(=O)(COc1ccc(CC2C(O)C(O)C(Cc3ccc(OC)cc3)N(Cc3cccc(N)c3)C(=O)N2Cc2cccc(N)c2)cc1)OCC (stereo not drawn) [OCH3, Ph-mNH2, OCH2PO3Et2]
EC50 (HIV-1 48V54V82S; Human immunodeficiency virus 1, read-out: Cell-based assay (MT-4) EC50/nM 48V54V82S): 117 nM
EC50 (HIV-1 48V82A90M; Human immunodeficiency virus 1, read-out: Cell-based assay (MT-4) EC50/nM 48V82A90M): 102 nM
IC50 (84V90M HIV protease): 56 nM
EC50 (HIV-1 84V90M): 535 nM
EC50 (HIV-1 48V54V82A; [11]): 202 nM
EC50 (HIV-1 46I50V; [12]): 36 nM
EC50 (HIV-1 30N82I88D; [13]): 18 nM

CCOP(=O)(COc1ccc(CC2C(O)C(O)C(Cc3ccc(OC)cc3)N(Cc3ccc(O)cc3)C(=O)N2Cc2ccc(O)cc2)cc1)OCC (stereo not drawn) [OCH3, Ph-pOH, OCH2PO3Et2]
EC50 (HIV-1 48V54V82S; [14]): 106 nM
EC50 (HIV-1 48V82A90M; [15]): 48 nM
EC50 (HIV-1 48V54V82A; [16]): 67 nM
EC50 (WT HIV-1 [1]; read-out: Cell-based assay (MT-4) EC50/nM WT): 29 nM
EC50 (HIV-1 46I50V; [17]): 68 nM
EC50 (HIV-1 30N82I88D; [18]): 23 nM

CCOP(=O)(COc1ccc(CC2C(O)C(O)C(Cc3ccc(OC)cc3)N(Cc3cccnc3)C(=O)N2Cc2cccnc2)cc1)OCC (stereo not drawn) [OCH3, m-pyridine, OCH2PO3Et2]
EC50 (HIV-1 48V54V82S; [14]): 970 nM
EC50 (HIV-1 48V82A90M; [15]): 480 nM
EC50 (HIV-1 48V54V82A; [16]): 1020 nM
EC50 (HIV-1 46I50V; [17]): 352 nM
EC50 (HIV-1 30N82I88D; [18]): 106 nM

CCOP(=O)(CCNC(=O)Oc1ccc(CC2C(O)C(O)C(Cc3ccc(OC)cc3)N(Cc3cccc(N)c3)C(=O)N2Cc2cccc(N)c2)cc1)OCC (stereo not drawn) [OCH3/Ph-mNH2/OCONH(CH2)2PO3Et2]
EC50 ([2]; MT-4 cells, strain printed as 48V 54V 82S, read-out: Cell-based assay (MT-4) EC50/nM 48V 54V 82S): 214 nM
EC50 ([3]; read-out: Cell-based assay (MT-4) EC50/nM 84V 90M, MT-4 cells, strain printed as 84V 90M): 2260 nM
EC50 ([4]; read-out: Cell-based assay (MT-4) EC50/nM 48V 82A 90M, MT-4 cells, strain printed as 48V 82A 90M): 215 nM
EC50 ([5]; MT-4 cells, strain printed as 30N 82I 88D, read-out: Cell-based assay (MT-4) EC50/nM 30N 82I 88D): 77 nM
EC50 ([6]; MT-4 cells, strain printed as 48V 54V 82A, read-out: Cell-based assay (MT-4) EC50/nM 48V 54V 82A): 262 nM
EC50 ([7]; MT-4 cells, strain printed as 47I50V, read-out: Cell-based assay (MT-4) EC50/nM 47I 50V): 184 nM

CCOP(=O)(COc1ccc(CC2C(O)C(O)C(Cc3ccc(OC)cc3)N(Cc3ccc(O)cc3)C(=O)N2Cc2ccc(O)cc2)cc1)OCC (stereo not drawn) [OCH3/Ph-pOH/OCH2PO3Et2]
EC50 ([2]; Human immunodeficiency virus 1, MT4, read-out: Cell-based assay (MT-4) EC50/nM 48V 54V 82S): 129 nM
EC50 ([3]; Human immunodeficiency virus 1, MT4, read-out: Cell-based assay (MT-4) EC50/nM 84V 90M): 148 nM
EC50 ([4]; Human immunodeficiency virus 1, MT4, read-out: Cell-based assay (MT-4) EC50/nM 48V 82A 90M): 54 nM
EC50 (WT HIV-1 [8]): 30 nM
EC50 ([5]; Human immunodeficiency virus 1, MT4, read-out: Cell-based assay (MT-4) EC50/nM 30N 82I 88D): 25 nM
EC50 ([6]; Human immunodeficiency virus 1, MT4, read-out: Cell-based assay (MT-4) EC50/nM 48V 54V 82A): 70 nM
EC50 ([7]; Human immunodeficiency virus 1, MT4, read-out: Cell-based assay (MT-4) EC50/nM 47I 50V): 90 nM

CC(C)c1nc(CN(C)C(=O)N[C@H](C(=O)N[C@@H](Cc2ccccc2)C[C@H](O)[C@H](Cc2ccccc2)NC(=O)OCc2cncs2)C(C)C)cs1 [Ritonavir, reference compound]
Total No. of Resistant Viruses [9]: 10
EC50 [10]: < 50 nM

CC(C)(C)NC(=O)[C@@H]1C[C@@H]2CCCC[C@@H]2CN1C[C@@H](O)[C@H](Cc1ccccc1)NC(=O)[C@H](CC(N)=O)NC(=O)c1ccc2ccccc2n1 [Saquinavir, reference compound]
Total No. of Resistant Viruses [9]: 4
EC50 [10]: < 50 nM

CCOP(=O)(COc1ccc(CC(NC(=O)OC2COC3OCCC23)C(O)CN(CC(C)C)S(=O)(=O)c2ccc(OC)cc2)cc1)OCc1ccccc1 (stereo not drawn) [drawing 608 R1=OEt R2=OBn]
EC50 [10]: < 50 nM
CC50 (in vitro): < 5000 nM

COc1ccc(S(=O)(=O)N(CC(C)C)CC(O)C(Cc2ccc(OCP(=O)(O)O)cc2)NC(=O)OC2COC3OCCC23)cc1 (stereo not drawn) [drawing 608 R1=OH R2=OH]
EC50 [10]: 500 to 5000 nM
CC50 (in vitro): > 50000 nM
I84V/L90M fold change (mutant HIV-1 I84V/L90M): − (≦3)

CCOP(=O)(CCCNC(=O)c1cccc(CN2C(=O)N(Cc3ccc4[nH]nc(N)c4c3)C(Cc3ccccc3)C(O)C(O)C2Cc2ccccc2)c1)OCC (stereo not drawn) [drawing 809]
IC50 (84V90M HIV protease): 10 nM
EC50 (HIV-1 84V90M): 476 nM
EC50 (HIV-1 48V54V82A; [11]): 240 nM
EC50 (WT HIV-1 [1]; [19]): 188 nM
EC50 (HIV-1 46I50V; [12]): 319 nM
EC50 (HIV-1 30N82I88D; [13]): 666 nM

Nc1n[nH]c2ccc(CN3C(=O)N(Cc4ccc(O)cc4)C(Cc4ccccc4)C(O)C(O)C3Cc3ccccc3)cc12 (stereo not drawn) [p-OH]
EC50 (HIV-1 48V54V82S; [14]): 39 nM
EC50 (HIV-1 48V82A90M; [15]): 19 nM
EC50 (HIV-1 48V54V82A; [16]): 32 nM
EC50 (HIV-1 46I50V; [17]): 55 nM
EC50 (HIV-1 30N82I88D; [18]): 79 nM

O=C1N(Cc2ccccc2)[C@H](Cc2ccccc2)[C@H](O)[C@@H](O)[C@@H](Cc2ccccc2)N1Cc1ccc2[nH]ncc2c1 [reference compound]
IC50 (84V90M HIV protease): 43.3 nM
EC50 (HIV-1 84V90M): 2310 nM
EC50 (HIV-1 48V54V82A; [11]): 705 nM
EC50 (WT HIV-1 [1]; [19]): 193 nM
EC50 (HIV-1 46I50V; [12]): 772 nM
EC50 (HIV-1 30N82I88D; [13]): 281 nM
